# Patent EP2725073B1, “Antifouling coating composition” (Jotun A/S, priority 2012, dated 2014)
# Test: Determination of carbodiimide half-life by IR spectroscopy (reaction with acetic acid in xylene)
# Type: physicochemical
# Settings: for Half-life: time for 50% of the carbodiimide compound to react with acetic acid in xylene at 23±2°C, carbodiimide absorption at 2100-2200 cm^-1; for Remarks: observation during reaction with acetic acid in xylene at 23±2°C
# Protocol: In particular, the carbodiimides of the present invention have slower reactivity than those described in US2005/0255081A1. The reactivity of carbodiimide compounds can be expressed as the half-life, i.e. in this case the time it takes for 50% of the carbodiimide compound to react with the carboxylic acid.
# The carbodiimide compound preferably has relatively slow reactivity. Reactivity is measured by way of the half-life of the carbodiimide, which is defined as the time taken for 50% of the carbodiimide compound to react with a carboxylic acid.
# Solutions of the carbodiimide compounds and acetic acid in xylene are prepared. A carbodiimide solution and the acetic acid solution are mixed and the reaction between the carbodiimide compound and acetic acid at 23±2°C is monitored by following the carbodiimide absorption at 2100-2200 cm^-1 in an zinc selenide cell. The reaction is followed until approximately 50% of the carbodiimide compound has reacted.
SMILES,Half-life [h],Remarks
"Cc1ccccc1N=C=Nc1ccccc1C [1,3-Di-o-methylphenylcarbodiimide]",3,
"C[Si](C)(C)N=C=N[Si](C)(C)C [1,3-bis(trimethylsilyl)carbodiimide]",,No reaction
"CC(C)c1cccc(C(C)C)c1N=C=Nc1c(C(C)C)cccc1C(C)C [Bis(2,6-diisopropylphenyl) carbodiimide]",30,
"C(=NC1CCCCC1)=NC1CCCCC1 [1,3-Dicyclohexylcarbodiimide]",0.25,Precipitation of urea products
"Cc1ccc(N=C=Nc2ccc(C)cc2)cc1 [1,3-Di-p-tolylcarbodiimide]",2,
"CC(C)N=C=NC(C)C [1,3-Diisopropylcarbodiimide]",0.75,Precipitation of urea products
